For series [1], the system named is Oryza sativa. As to the kind of experiment: Phytotoxicity against directly seeded Oryza sativa (rice) seedlings assessed as phytotoxic activity ratings (0- no effect to 5-complete killing rating scale) at 6.2 g/a measured after 3 weeks post compound treatment under green house conditions. Type of series: organism-based. The settings on record: in vivo, 504 h.
Series [2] concerns Schoenoplectiella juncoides. In words: Herbicidal activity against Schoenoplectiella juncoides var. Hotarui Ohwi assessed as phytotoxic activity ratings (0- no effect to 5-complete killing rating scale) at 6.2 g/a measured after 3 weeks post compound treatment under green house conditions. Format: functional.
For series [3], the system named is Cyperus serotinus. In words: Herbicidal activity against Cyperus serotinus assessed as phytotoxic activity ratings (0- no effect to 5-complete killing rating scale) at 3.1 g/a measured after 3 weeks post compound treatment under green house conditions. Type of series: functional.
Series [4] deals with Echinochloa oryzicola. As to the kind of experiment: Herbicidal activity against Echinochloa oryzicola assessed as phytotoxic activity ratings (0- no effect to 5-complete killing rating scale) at 6.2 g/a measured after 3 weeks post compound treatment under green house conditions. Type of series: functional.
The subject of series [5] is Oryza sativa. In words: Phytotoxicity against transplanted Oryza sativa (rice) seedlings assessed as phytotoxic activity ratings (0- no effect to 5-complete killing rating scale) at 100 g/a measured after 3 weeks post compound treatment under green house conditions. The settings on record: in vivo, 504 h. Format: organism-based.
Series [6] relates to Cyperus difformis. As to the kind of experiment: Herbicidal activity against Cyperus difformis assessed as phytotoxic activity ratings (0- no effect to 5-complete killing rating scale) at 6.2 g/a measured after 3 weeks post compound treatment under green house conditions. Format: functional.
Series [7] concerns Oryza sativa. As to the kind of experiment: Phytotoxicity against directly seeded Oryza sativa (rice) seedlings assessed as phytotoxic activity ratings (0- no effect to 5-complete killing rating scale) at 100 g/a measured after 3 weeks post compound treatment under green house conditions. Type of series: organism-based. The settings on record: in vivo, 504 h.
Series [8] deals with Schoenoplectiella juncoides. As to the kind of experiment: Herbicidal activity against Schoenoplectiella juncoides var. Hotarui Ohwi assessed as phytotoxic activity ratings (0- no effect to 5-complete killing rating scale) at 3.1 g/a measured after 3 weeks post compound treatment under green house conditions. Format: functional.
Series [9] relates to Echinochloa oryzicola. As to the kind of experiment: Herbicidal activity against Echinochloa oryzicola assessed as phytotoxic activity ratings (0- no effect to 5-complete killing rating scale) at 50 g/a measured after 3 weeks post compound treatment under green house conditions. Format: functional.
The subject of series [10] is Schoenoplectiella juncoides. In words: Herbicidal activity against Schoenoplectiella juncoides var. Hotarui Ohwi assessed as phytotoxic activity ratings (0- no effect to 5-complete killing rating scale) at 12.2 g/a measured after 3 weeks post compound treatment under green house conditions. Format: functional.
Series [11] deals with Cyperus difformis. As to the kind of experiment: Herbicidal activity against Cyperus difformis assessed as phytotoxic activity ratings (0- no effect to 5-complete killing rating scale) at 12.2 g/a measured after 3 weeks post compound treatment under green house conditions. Format: functional.
Series [12] relates to Echinochloa oryzicola. As to the kind of experiment: Herbicidal activity against Echinochloa oryzicola assessed as phytotoxic activity ratings (0- no effect to 5-complete killing rating scale) at 100 g/a measured after 3 weeks post compound treatment under green house conditions. Format: functional.
The subject of series [13] is Oryza sativa. As to the kind of experiment: Phytotoxicity against directly seeded Oryza sativa (rice) seedlings assessed as phytotoxic activity ratings (0- no effect to 5-complete killing rating scale) at 12.2 g/a measured after 3 weeks post compound treatment under green house conditions. Format: organism-based. The settings on record: in vivo, 504 h.
For series [14], the system named is Cyperus serotinus. As to the kind of experiment: Herbicidal activity against Cyperus serotinus assessed as phytotoxic activity ratings (0- no effect to 5-complete killing rating scale) at 100 g/a measured after 3 weeks post compound treatment under green house conditions. Type of series: functional.
For series [15], the system named is Schoenoplectiella juncoides. In words: Herbicidal activity against Schoenoplectiella juncoides var. Hotarui Ohwi assessed as phytotoxic activity ratings (0- no effect to 5-complete killing rating scale) at 100 g/a measured after 3 weeks post compound treatment under green house conditions. Type of series: functional.
The subject of series [16] is Cyperus difformis. As to the kind of experiment: Herbicidal activity against Cyperus difformis assessed as phytotoxic activity ratings (0- no effect to 5-complete killing rating scale) at 100 g/a measured after 3 weeks post compound treatment under green house conditions. Format: functional.
Series [17] has as its system Cyperus serotinus. As to the kind of experiment: Herbicidal activity against Cyperus serotinus assessed as phytotoxic activity ratings (0- no effect to 5-complete killing rating scale) at 50 g/a measured after 3 weeks post compound treatment under green house conditions. Format: functional.
For series [18], the system named is Cyperus serotinus. As to the kind of experiment: Herbicidal activity against Cyperus serotinus assessed as phytotoxic activity ratings (0- no effect to 5-complete killing rating scale) at 12.2 g/a measured after 3 weeks post compound treatment under green house conditions. Type of series: functional.
For series [19], the system named is Cyperus difformis. As to the kind of experiment: Herbicidal activity against Cyperus difformis assessed as phytotoxic activity ratings (0- no effect to 5-complete killing rating scale) at 25 g/a measured after 3 weeks post compound treatment under green house conditions. Format: functional.
Series [20] concerns Cyperus difformis. As to the kind of experiment: Herbicidal activity against Cyperus difformis assessed as phytotoxic activity ratings (0- no effect to 5-complete killing rating scale) at 50 g/a measured after 3 weeks post compound treatment under green house conditions. Format: functional.
The subject of series [21] is Cyperus serotinus. In words: Herbicidal activity against Cyperus serotinus assessed as phytotoxic activity ratings (0- no effect to 5-complete killing rating scale) at 3.1 to 100 g/a measured after 3 weeks post compound treatment under green house conditions. Format: functional.

The record followed here is ChEMBL document CHEMBL3046383, “Enantioselective Herbicidal Activity of Chiral α-Methylbenzylphenylureas against Cyperaceae and Echinochloa Paddy Weeds” (Biosci Biotechnol Biochem, 1998).

As for `C[C@@H](NC(=O)Nc1ccccc1C(C)(C)C)c1ccccc1`, the Activity was 80% in series [1]; 80% in [2]; 80% in series [3]; 80% in series [4]; 0% in series [5]; 80% in series [6].
`Cc1ccc(NC(=O)NC(C)(C)c2ccccc2)cc1` [DAIMURON]: the Activity in [7] came out at 10%; in [8], 80%; in [9] it was 80%; in [5], 0%; in series [6] it was 80%.
Turning to `C[C@@H](NC(=O)Nc1ccccc1C(F)(F)F)c1ccccc1`, the Activity in series [7] came out at 10%; in [3] it was 80%; in series [10], 80%; in series [11], 80%; in series [5], 0%; in [12] it was 40%.
`CC(C)c1ccccc1NC(=O)N[C@H](C)c1ccccc1`: the Activity in series [2] worked out at 80%; in [3] it was 80%; in series [4], 80%; in series [5], 0%; in series [13], 80%; in series [6], 80%.
For `CCc1cccc(NC(=O)N[C@H](C)c2ccccc2)c1`, the Activity is on record as 0% in [7]; 40% in [14]; 40% in [15]; 80% in [11]; 0% in series [5]; 40% in [12].
As to `Cc1ccccc1NC(=O)N[C@H](C)c1ccccc1`, the Activity in series [7] is given as 0%; in series [16], 10%; in series [17], 80%; in series [5], 0%; in series [12], 0%.
As for `CC(C)c1cccc(NC(=O)N[C@H](C)c2ccccc2)c1`, the Activity in series [7] came to 0%; in series [18] it was 80%; in series [15] it was 40%; in series [19] it was 80%; in series [5], 0%; in series [12], 0%.
Take `CC(C)c1cccc(NC(=O)N[C@@H](C)c2ccccc2)c1`: the Activity in series [7] was found to be 0%; in [20], 80%; in series [21] it was 80%; in series [14], 10%; in series [5] it was 0%; in series [12] it was 0%.
